From PubChem BioAssay (NCI)
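1) Cells in 96-well plates. 2) Compound, 48 h, 5 concentrations. 3) Linear interpolation between surrounding doses. 4) Unreached endpoint = highest concentration. GI50: concentration for 50% inhibition of growth. TGI: concentration producing complete growth inhibition.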

Key:
Assay in all cases: NCI tumour cell line growth inhibition, 48 h
SW-620 colon = tested on: SW-620 colon
HCC-2998 colon = tested on: HCC-2998 colon
IGROV1 ovarian = tested on: IGROV1 ovarian
KM12 colon = tested on: KM12 colon
A549 NSCLC = tested on: A549 NSCLC
HL-60(TB) leukemia = tested on: HL-60(TB) leukemia
MDA-MB-231 breast = tested on: MDA-MB-231 breast
NCI/ADR-RES ovarian = tested on: NCI/ADR-RES ovarian
PC-3 prostate = tested on: PC-3 prostate
T-47D breast = tested on: T-47D breast

Structure (SMILES)	TGI (SW-620 colon) [µM]	TGI (HCC-2998 colon) [µM]	TGI (IGROV1 ovarian) [µM]	TGI (KM12 colon) [µM]	TGI (A549 NSCLC) [µM]	TGI (HL-60(TB) leukemia) [µM]	TGI (MDA-MB-231 breast) [µM]	TGI (NCI/ADR-RES ovarian) [µM]	TGI (PC-3 prostate) [µM]	TGI (T-47D breast) [µM]	GI50 (MDA-MB-231 breast) [µM]	GI50 (NCI/ADR-RES ovarian) [nM]	GI50 (IGROV1 ovarian) [µM]	GI50 (PC-3 prostate) [nM]	GI50 (T-47D breast) [nM]	GI50 (A549 NSCLC) [µM]	GI50 (HL-60(TB) leukemia) [nM]	GI50 (SW-620 colon) [nM]
O=C(C(=O)c1cc2ccccc2[nH]1)c1cc2ccccc2[nH]1	> 347	> 347	> 347	> 347	> 347	> 347												
CCOC(=O)Cc1c(C)c2cc(C(=O)c3ccccc3)c(O)cc2oc1=O	> 100	> 100	> 100		91.3	53.8	72	73.3	81.2	88.3								
COC1CCC(OS(C)(=O)=O)C(CO)O1 (stereo not given)	> 100	> 100	> 100	> 100	> 100	> 100												
C=C(c1ccc(OC)c(/C=C/C(=O)c2ccc3c(c2)OCO3)c1)c1cc(OC)c(OC)c(OC)c1			> 100		> 100	> 100	> 100	37.2	> 100	> 100	5.97	2770	4.31	2910	2660	3.54	2670	
COc1ccc(Cc2c3cc(O)c(=O)cc-3ccn2C)cc1	> 100	> 100	> 100	> 100	> 100	> 100												
C=CCC1(CN(C)C)CC/C(=C\c2ccc(OC)cc2)C1=O (stereo not given)	> 100	> 100	> 100	> 100	> 100	45.6												
NNC(=O)C(=O)N/N=C(\CCCC(=O)Nc1ccc(Cl)cc1)CC(=O)c1ccc(F)cc1	> 100	> 100	> 100	> 100	> 100	> 100												
C=C(CCCCC)CN1CCCC1C(C)=O (stereo not given)	> 100	> 100	> 100	> 100	> 100	19.7												
O=C(/C=C\c1ccccc1O)c1ccc(O)cc1O	22.7	> 100	> 100	> 100	> 100	> 100												
C=CCNC(=O)NCCCCC(NC(C)=O)C(=O)NCc1ccccc1 (stereo not given)	> 100	> 100	> 100	> 100	> 100	> 100												
CCC[C@H]1O[C@@H]2CC(=O)O[C@@H]2C2=C1C(=O)C=CC2=O	35.7	> 57	32.1	48.3	> 58.1	37.7												
OC(CNc1ccnc2cc(Cl)ccc12)CNc1ccnc2cc(Cl)ccc12	3.21		36.8		21.2	3.79	3.44	> 100	3.1		1.73	> 100000	10.9	1600		4.49	1820	1660
CC1(C)OC2C(CCP(=O)(O)O)OC(c3nc(C(N)=O)cs3)C2O1 (stereo not given)	> 100	> 100	> 100	> 100	> 100													
CC1=N/C(=C/c2ccc3c(c2)OCO3)C(=O)O1	> 100		> 100	> 100	> 100													
